Reference: ChEMBL document CHEMBL5442219

How the values were obtained:
Details in all cases: Compound concentration 10 µM
[1] = biological target: Histamine H1 receptor (Homo sapiens) (UniProt P35367)
[2] = biological target: 5-hydroxytryptamine receptor 1B (Homo sapiens) (UniProt P28222)
[3] = biological target: Sodium-dependent dopamine transporter (Homo sapiens) (UniProt Q01959)
[4] = biological target: 5-hydroxytryptamine receptor 1E (Homo sapiens) (UniProt P28566)
[5] = biological target: Histamine H2 receptor (Homo sapiens) (UniProt P25021)
[6] = biological target: T1, 5-hydroxytryptamine receptor 1A (Homo sapiens) (UniProt P08908)
T1 sequence (whole entry): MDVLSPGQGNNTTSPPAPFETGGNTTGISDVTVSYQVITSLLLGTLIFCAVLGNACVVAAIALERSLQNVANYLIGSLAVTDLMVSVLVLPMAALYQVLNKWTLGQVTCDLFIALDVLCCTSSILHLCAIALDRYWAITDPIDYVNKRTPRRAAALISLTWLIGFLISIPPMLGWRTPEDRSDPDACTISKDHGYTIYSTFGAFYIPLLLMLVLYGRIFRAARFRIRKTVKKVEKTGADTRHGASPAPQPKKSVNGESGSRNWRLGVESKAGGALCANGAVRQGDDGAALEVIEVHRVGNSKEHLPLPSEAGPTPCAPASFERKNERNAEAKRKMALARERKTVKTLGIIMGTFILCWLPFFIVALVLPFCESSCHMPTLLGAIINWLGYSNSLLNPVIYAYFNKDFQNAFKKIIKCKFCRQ

[7] = biological target: T2, 5-hydroxytryptamine receptor 3A (Homo sapiens) (UniProt P46098)
T2 sequence (whole entry): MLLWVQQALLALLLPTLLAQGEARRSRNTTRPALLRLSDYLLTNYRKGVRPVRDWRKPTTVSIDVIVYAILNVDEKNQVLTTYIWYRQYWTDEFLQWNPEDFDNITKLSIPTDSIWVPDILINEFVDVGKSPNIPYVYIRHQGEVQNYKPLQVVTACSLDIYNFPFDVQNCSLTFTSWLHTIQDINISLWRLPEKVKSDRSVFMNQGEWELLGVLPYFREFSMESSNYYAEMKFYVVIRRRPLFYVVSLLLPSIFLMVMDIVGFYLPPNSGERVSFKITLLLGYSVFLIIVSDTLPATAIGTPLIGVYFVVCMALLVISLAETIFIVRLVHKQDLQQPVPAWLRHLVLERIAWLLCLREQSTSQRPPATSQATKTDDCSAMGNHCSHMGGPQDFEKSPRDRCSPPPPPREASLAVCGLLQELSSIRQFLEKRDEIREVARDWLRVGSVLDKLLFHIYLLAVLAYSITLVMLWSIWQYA

[8] = biological target: D(3) dopamine receptor (Homo sapiens) (UniProt P35462)
[9] = biological target: Sigma non-opioid intracellular receptor 1 (Homo sapiens) (UniProt Q99720)
[10] = biological target: D(1A) dopamine receptor (Homo sapiens) (UniProt P21728)
[11] = biological target: Histamine H3 receptor (Homo sapiens) (UniProt Q9Y5N1)
[12] = biological target: 5-hydroxytryptamine receptor 7 (Homo sapiens) (UniProt P34969)
[13] = biological target: Sodium-dependent serotonin transporter (Homo sapiens) (UniProt P31645)
[14] = biological target: T3, Alpha-2A adrenergic receptor (Homo sapiens) (UniProt P08913)
T3 sequence (whole entry): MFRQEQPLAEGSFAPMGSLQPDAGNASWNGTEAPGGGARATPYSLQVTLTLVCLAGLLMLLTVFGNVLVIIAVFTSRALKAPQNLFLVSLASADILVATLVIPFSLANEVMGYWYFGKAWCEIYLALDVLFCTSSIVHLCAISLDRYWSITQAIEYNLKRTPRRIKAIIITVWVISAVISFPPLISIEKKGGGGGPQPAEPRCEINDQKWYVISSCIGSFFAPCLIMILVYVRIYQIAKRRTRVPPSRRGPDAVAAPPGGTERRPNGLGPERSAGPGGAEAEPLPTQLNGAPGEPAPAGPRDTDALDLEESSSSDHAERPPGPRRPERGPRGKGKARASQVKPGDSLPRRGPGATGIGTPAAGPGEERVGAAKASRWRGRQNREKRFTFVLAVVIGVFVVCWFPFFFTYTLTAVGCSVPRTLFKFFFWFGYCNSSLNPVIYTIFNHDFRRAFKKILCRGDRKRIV

[15] = biological target: D(2) dopamine receptor (Homo sapiens) (UniProt P14416)
[16] = biological target: T4, Muscarinic acetylcholine receptor M4 (Homo sapiens) (UniProt P08173)
T4 sequence (whole entry): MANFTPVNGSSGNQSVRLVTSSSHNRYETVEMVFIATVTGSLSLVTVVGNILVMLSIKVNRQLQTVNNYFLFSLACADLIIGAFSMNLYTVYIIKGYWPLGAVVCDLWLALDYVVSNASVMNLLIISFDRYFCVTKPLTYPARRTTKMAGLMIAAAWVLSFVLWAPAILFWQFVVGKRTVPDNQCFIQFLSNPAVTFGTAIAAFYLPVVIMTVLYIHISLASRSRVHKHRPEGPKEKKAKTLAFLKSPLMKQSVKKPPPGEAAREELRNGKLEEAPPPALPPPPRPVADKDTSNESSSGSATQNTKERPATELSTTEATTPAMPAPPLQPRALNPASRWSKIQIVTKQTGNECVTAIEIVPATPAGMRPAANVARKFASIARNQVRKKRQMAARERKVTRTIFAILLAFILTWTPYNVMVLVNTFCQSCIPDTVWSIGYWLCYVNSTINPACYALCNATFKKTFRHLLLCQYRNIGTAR

[17] = biological target: T5, D(4) dopamine receptor (Homo sapiens) (UniProt P21917)
T5 sequence (whole entry): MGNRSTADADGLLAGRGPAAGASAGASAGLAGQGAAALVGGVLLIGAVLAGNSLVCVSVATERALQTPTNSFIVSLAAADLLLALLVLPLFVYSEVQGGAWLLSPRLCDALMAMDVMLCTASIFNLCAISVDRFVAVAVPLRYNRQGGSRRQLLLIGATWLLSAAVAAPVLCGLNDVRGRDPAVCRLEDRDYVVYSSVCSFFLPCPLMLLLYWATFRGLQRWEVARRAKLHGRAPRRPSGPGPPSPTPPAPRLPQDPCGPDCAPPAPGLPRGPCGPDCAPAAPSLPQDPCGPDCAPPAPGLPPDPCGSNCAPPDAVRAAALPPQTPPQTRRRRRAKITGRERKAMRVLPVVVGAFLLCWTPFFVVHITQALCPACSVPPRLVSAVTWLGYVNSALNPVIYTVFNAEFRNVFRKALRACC

[18] = biological target: 5-hydroxytryptamine receptor 2A (Homo sapiens) (UniProt P28223)
[19] = biological target: Mu-type opioid receptor (Homo sapiens) (UniProt P35372)
[20] = biological target: Translocator protein (Homo sapiens) (UniProt P30536)
[21] = biological target: Beta-2 adrenergic receptor (Homo sapiens) (UniProt P07550)
[22] = biological target: Histamine H4 receptor (Homo sapiens) (UniProt Q9H3N8)
[23] = biological target: Kappa-type opioid receptor (Homo sapiens) (UniProt P41145)
[24] = biological target: 5-hydroxytryptamine receptor 2B (Homo sapiens) (UniProt P41595)
[25] = biological target: Beta-3 adrenergic receptor (Homo sapiens) (UniProt P13945)
[26] = biological target: Sigma intracellular receptor 2 (Homo sapiens) (UniProt Q5BJF2)
[27] = biological target: T6, Alpha-2B adrenergic receptor (Homo sapiens) (UniProt P18089)
T6 sequence (whole entry): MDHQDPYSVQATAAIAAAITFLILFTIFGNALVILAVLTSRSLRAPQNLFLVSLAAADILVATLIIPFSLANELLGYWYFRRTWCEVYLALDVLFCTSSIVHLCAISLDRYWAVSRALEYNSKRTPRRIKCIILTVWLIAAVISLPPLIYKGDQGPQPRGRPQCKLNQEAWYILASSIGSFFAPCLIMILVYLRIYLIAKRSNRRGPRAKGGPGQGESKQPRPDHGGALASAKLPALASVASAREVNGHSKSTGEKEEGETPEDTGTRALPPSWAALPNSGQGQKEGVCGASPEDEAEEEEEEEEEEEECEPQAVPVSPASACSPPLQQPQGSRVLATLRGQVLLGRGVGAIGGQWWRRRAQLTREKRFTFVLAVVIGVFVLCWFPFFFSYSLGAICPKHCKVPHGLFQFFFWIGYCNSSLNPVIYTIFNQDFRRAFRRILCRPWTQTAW

[28] = biological target: T7, Alpha-2C adrenergic receptor (Homo sapiens) (UniProt P18825)
T7 sequence (whole entry): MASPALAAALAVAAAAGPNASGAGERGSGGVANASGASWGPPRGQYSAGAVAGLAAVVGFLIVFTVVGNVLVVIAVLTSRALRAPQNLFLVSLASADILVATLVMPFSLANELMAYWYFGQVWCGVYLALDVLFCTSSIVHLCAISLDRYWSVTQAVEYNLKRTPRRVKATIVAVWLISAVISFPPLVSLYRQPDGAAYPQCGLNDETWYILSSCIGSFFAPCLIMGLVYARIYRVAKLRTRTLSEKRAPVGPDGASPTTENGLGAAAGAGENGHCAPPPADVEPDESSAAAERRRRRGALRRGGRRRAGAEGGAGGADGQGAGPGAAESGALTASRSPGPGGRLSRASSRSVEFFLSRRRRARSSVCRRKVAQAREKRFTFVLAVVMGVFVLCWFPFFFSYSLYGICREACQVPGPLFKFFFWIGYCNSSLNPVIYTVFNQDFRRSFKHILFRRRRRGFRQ

[29] = biological target: 5-hydroxytryptamine receptor 1D (Homo sapiens) (UniProt P28221)
[30] = biological target: T8, Muscarinic acetylcholine receptor M1 (Homo sapiens) (UniProt P11229)
T8 sequence (whole entry): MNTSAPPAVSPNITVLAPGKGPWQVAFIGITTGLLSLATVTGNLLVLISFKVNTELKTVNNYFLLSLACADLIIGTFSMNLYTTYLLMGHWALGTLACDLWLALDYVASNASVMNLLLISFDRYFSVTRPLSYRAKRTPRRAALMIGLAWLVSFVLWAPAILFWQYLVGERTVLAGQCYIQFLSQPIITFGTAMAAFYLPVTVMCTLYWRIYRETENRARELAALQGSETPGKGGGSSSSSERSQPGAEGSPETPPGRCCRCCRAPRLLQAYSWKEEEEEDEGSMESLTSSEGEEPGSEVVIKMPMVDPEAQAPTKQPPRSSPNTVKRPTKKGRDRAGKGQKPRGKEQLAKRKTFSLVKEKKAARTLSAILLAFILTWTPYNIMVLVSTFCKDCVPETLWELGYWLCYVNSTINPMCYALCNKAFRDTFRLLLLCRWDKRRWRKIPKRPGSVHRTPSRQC

Sequence of Histamine H1 receptor (Homo sapiens) (P35367 whole entry): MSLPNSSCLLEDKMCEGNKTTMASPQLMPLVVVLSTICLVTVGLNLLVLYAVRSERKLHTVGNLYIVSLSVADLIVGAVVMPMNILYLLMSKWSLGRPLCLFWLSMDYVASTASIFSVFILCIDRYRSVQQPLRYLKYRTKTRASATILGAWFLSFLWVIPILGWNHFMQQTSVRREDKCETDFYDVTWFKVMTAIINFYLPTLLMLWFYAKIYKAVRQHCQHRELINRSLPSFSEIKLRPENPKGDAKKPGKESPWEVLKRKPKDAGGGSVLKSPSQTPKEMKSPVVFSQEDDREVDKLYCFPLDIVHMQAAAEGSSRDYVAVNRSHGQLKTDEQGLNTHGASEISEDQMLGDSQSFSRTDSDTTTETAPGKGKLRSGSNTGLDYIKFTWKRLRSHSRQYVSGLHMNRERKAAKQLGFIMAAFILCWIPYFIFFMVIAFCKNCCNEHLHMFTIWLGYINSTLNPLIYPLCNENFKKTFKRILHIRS
Sequence of Sodium-dependent dopamine transporter (Homo sapiens) (Q01959 whole entry): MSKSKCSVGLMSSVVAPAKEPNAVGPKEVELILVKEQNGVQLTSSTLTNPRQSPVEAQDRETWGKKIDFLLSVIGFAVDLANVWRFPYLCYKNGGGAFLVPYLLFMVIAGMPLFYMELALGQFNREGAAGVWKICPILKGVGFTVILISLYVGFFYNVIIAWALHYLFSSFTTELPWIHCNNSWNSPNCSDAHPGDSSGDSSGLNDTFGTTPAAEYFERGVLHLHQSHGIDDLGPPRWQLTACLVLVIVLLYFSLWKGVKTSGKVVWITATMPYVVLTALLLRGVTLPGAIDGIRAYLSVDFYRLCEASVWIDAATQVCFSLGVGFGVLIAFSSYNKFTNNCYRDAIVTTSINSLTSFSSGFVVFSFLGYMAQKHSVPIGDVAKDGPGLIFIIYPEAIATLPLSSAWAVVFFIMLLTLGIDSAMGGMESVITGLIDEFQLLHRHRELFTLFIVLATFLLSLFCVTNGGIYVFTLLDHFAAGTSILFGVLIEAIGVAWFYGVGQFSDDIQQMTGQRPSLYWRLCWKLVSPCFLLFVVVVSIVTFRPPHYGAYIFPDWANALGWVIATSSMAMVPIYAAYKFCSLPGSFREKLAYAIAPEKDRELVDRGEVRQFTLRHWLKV
Sequence of Sigma intracellular receptor 2 (Homo sapiens) (Q5BJF2 whole entry): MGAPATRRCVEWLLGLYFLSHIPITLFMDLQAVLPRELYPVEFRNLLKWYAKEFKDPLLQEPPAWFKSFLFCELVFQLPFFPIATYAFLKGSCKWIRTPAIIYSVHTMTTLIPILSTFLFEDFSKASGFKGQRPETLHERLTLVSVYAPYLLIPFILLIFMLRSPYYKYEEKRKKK
Sequence of Sigma non-opioid intracellular receptor 1 (Homo sapiens) (Q99720 whole entry): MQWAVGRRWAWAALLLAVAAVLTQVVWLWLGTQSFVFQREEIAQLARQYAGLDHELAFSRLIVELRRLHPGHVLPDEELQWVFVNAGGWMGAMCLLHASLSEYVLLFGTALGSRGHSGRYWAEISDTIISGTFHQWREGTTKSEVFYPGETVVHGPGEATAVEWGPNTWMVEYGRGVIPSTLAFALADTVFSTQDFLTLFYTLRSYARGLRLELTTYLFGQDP
Sequence of 5-hydroxytryptamine receptor 1E (Homo sapiens) (P28566 whole entry): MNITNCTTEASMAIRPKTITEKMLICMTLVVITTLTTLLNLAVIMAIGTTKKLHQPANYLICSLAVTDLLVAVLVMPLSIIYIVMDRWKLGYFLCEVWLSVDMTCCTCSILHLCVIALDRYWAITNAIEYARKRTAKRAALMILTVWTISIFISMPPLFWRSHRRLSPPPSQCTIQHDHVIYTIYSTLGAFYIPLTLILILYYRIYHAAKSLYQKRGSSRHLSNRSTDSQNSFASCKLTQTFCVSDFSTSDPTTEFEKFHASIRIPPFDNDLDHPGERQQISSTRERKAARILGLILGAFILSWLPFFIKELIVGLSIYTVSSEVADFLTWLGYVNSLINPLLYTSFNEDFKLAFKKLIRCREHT
Sequence of Translocator protein (Homo sapiens) (P30536 whole entry): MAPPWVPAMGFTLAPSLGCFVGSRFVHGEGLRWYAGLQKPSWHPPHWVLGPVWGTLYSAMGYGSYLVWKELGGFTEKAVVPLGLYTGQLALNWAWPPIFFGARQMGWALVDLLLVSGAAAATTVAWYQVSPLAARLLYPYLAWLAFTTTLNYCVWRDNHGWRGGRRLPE
Sequence of D(2) dopamine receptor (Homo sapiens) (P14416 whole entry): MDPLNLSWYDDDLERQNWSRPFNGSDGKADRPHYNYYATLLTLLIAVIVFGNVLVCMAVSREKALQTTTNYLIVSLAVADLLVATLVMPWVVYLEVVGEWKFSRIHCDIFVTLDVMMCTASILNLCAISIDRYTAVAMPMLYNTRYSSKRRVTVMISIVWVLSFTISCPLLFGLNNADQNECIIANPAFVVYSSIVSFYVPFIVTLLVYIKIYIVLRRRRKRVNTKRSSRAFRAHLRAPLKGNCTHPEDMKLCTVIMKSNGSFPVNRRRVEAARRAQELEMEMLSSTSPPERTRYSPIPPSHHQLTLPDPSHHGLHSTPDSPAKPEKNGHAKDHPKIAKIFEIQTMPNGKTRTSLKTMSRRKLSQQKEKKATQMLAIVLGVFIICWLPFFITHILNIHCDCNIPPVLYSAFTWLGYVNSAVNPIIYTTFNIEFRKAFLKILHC
Sequence of Histamine H3 receptor (Homo sapiens) (Q9Y5N1 whole entry): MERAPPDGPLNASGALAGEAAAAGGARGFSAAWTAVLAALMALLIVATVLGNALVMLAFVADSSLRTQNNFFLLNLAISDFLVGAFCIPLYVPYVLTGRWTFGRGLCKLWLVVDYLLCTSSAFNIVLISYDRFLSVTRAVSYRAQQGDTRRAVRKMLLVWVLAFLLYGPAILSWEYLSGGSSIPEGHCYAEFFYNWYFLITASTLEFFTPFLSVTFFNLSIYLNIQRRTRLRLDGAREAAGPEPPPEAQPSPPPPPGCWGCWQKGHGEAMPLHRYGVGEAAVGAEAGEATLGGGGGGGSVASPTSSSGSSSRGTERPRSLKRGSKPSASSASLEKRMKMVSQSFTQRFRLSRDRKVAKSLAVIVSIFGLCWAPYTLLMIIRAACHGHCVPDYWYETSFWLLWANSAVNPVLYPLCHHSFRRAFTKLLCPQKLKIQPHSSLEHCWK
Sequence of Mu-type opioid receptor (Homo sapiens) (P35372 whole entry): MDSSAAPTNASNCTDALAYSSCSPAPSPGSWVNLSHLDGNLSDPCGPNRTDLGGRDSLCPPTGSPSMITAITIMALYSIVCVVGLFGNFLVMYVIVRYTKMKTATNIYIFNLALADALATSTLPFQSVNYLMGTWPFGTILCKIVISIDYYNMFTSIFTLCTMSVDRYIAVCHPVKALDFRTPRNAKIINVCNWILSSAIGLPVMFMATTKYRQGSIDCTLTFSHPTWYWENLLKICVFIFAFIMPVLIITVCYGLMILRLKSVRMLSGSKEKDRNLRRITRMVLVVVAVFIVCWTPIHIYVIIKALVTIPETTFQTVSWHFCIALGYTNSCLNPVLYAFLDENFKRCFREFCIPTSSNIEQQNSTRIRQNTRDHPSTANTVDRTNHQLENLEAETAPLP
Sequence of 5-hydroxytryptamine receptor 1B (Homo sapiens) (P28222 whole entry): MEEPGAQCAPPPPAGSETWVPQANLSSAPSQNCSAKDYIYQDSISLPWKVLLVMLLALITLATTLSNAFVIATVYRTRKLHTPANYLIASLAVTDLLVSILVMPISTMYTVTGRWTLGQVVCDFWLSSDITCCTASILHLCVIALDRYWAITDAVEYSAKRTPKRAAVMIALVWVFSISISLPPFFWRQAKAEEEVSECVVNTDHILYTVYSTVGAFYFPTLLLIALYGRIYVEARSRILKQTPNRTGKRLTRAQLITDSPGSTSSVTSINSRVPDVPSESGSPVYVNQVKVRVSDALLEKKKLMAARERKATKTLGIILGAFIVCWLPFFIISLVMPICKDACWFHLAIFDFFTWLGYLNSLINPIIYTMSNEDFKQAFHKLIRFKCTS
Sequence of Kappa-type opioid receptor (Homo sapiens) (P41145 whole entry): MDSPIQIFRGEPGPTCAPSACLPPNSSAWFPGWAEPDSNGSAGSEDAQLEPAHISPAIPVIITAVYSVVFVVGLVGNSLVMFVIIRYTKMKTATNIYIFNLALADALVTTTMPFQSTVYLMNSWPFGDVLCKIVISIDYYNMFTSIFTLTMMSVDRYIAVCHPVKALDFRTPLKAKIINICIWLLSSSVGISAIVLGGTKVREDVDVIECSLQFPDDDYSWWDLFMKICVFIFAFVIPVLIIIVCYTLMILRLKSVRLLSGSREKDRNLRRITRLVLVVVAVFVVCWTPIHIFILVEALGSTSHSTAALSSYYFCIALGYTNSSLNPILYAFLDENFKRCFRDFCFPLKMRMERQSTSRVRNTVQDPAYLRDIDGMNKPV
Sequence of Histamine H4 receptor (Homo sapiens) (Q9H3N8 whole entry): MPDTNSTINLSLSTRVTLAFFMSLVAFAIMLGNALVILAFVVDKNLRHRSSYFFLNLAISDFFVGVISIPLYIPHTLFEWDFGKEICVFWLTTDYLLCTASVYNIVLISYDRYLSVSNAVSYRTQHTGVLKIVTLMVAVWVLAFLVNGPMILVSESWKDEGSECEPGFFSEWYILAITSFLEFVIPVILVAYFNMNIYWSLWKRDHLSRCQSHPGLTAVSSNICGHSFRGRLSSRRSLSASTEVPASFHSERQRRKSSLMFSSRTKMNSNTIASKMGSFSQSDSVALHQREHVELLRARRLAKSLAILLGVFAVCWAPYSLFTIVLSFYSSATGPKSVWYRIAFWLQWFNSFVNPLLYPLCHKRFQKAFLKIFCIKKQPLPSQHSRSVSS
Sequence of Beta-2 adrenergic receptor (Homo sapiens) (P07550 whole entry, looked up): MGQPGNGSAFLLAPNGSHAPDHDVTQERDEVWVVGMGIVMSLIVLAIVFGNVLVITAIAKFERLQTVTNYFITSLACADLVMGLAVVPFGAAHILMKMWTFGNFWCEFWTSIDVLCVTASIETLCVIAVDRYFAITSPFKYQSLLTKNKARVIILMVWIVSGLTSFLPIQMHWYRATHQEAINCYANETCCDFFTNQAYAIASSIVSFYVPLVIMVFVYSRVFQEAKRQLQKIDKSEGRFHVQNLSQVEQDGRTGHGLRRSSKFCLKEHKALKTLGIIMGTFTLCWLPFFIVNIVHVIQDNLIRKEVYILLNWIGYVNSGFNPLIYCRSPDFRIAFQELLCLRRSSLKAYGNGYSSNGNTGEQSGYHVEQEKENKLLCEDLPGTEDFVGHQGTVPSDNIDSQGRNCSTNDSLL

Row | SMILES | inhibition [1] | inhibition [2] | inhibition [3] | inhibition [4] | inhibition [9] | inhibition [11] | inhibition [12] | inhibition [14] | inhibition [15] | inhibition [17] | inhibition [19] | inhibition [20] | inhibition [21] | inhibition [22] | inhibition [23] | inhibition [24] | inhibition [26] | also measured
1 | Cc1c(C(=O)NC2CCCCC2)sc2nc3ccc(N)cc3n12 | 11.7% | 27.8% | 17.7% | 5.97% | 62.8% | 4.62% | 6.55% | -6.44% | -1.44% | 38.1% | 8.54% | -2.67% | 5.51% | 1.51% | 17.5% | 53.3% | 10.3% | inhibition [5]: 21.4%; inhibition [6]: 33.1%; inhibition [7]: -6.74%; inhibition [8]: 36.7%; inhibition [10]: 7.6%; inhibition [13]: 7.26%; inhibition [16]: -5.41%; inhibition [18]: 10.5%; inhibition [25]: -9.6%
2 | O=C(O)c1n[nH]c2c1C[C@H]1C[C@@H]21 | -7.37% | 13% | 1.37% | 5.8% | 14.3% | -7.4% | -5.09% | 8.74% | -9.71% | -4.86% | -4.24% | 4.46% | 3.75% | 10% | -6.22% | 15.1% | 11.9% | inhibition [27]: 3.24%; inhibition [28]: 1.98%; inhibition [29]: 17.2%; inhibition [30]: -7.24%
